According to patent US10583154B2, “Multi-dose compositions containing an antimicrobial polyamide or octenidine preservative” (priority 2016, dated 2020):

Legend:
panel of pathogens = conditions: cited from earlier work
Staphylococcus aureus = assay: Antimicrobial preservative efficacy test (dilution neutralization), preservative as WFI solution; type: cell-based
Excerpt: (§1) Preservatives are commonly used in multi-dose formulations, including animal vaccines, to prevent bacterial or fungal growth in field conditions and are employed to minimize contamination of the formulations during repeated (non-sterile) punctures into the vial. Preservatives must pass antimicrobial effectiveness testing (AET), as described in the US pharmacopeia. As disclosed herein, Applicants performed the antimicrobial tests according to United States Pharmacopeia (USP), British Pharmacopeia (BP), and European Pharmocopeia (EP). Four test organisms were used: Candida albicans, Pseudomonas aeruginosa, Staphylococcus aureus, and A. brasiliensis. And while thimerosal and formol continue to play an important role in veterinary vaccines, European authorities encourage the development of vaccines that are free from those compounds.
(§2) For each concentration of polyamide polymer, dilution neutralization was carried out by inoculating 10 mL of test product with 100 μL of each test strain. Countings were performed at Do, 6 h (bacteria only), 24 h (bacteria only), D7, D14 and D28. For each counting, 1 mL of the sample was neutralized in 9 mL of neutralizing solution (10 minutes), for S. aureus, a second 1:10 dilution in the same solution. Then 1 mL of the mixture was transferred in Petri dishes and covered with 15 mL of agar medium (Trypcase Soy Agar for bacteria and Sabouraud Dextrosed Agar for yeasts and molds). The countings were achieved after 24-48 hours incubation at 32.5° C.±2.5° C. for bacteria, and 48-72 hours at 22.5° C.[…] for yeasts and molds. The test micro-organisms included Staphylococcus aureus, Pseudomonas aeruginosa, Candida albicans and Aspergillus brasiliensis. Finally, the neutralization solution contained: Tween 80 (10%), lecithin (2%), saponin (2%), sodium thiosulfate (0.5%) and buffered solution chloride. The saponin was from the bark of Quillaja saponaria.
(§3) For each concentration of octenidine, dilution neutralization was carried out as disclosed in Example 1.

Candida albicans = assay: as above; type: cell-based
Excerpt: as §1, §2, §3

Aspergillus brasiliensis = assay: as above; type: cell-based
Excerpt: as §1, §2, §3

For CCCCCCCCN=c1ccn(CCCCCCCCCCn2ccc(=NCCCCCCCC)cc2)cc1.Cl.Cl [Octenidine Dihydrochloride, Octenidine dihydrochloride], which “Efficacy: spectrum” value (panel of pathogens) is on record?
Its value is “Broad spectrum”.

What about the MIC (panel of pathogens) of the same compound?
The MIC was “MIC ≤1 μg/ml”.

What about the log reduction (Staphylococcus aureus; 0.001 mg/mL, 6 h) of the same compound?
The log reduction was 3.8 log.

And the viable count (Staphylococcus aureus; 0.001 mg/mL, 6 h)?
Its viable count is 1.6 × 10^2.

What about the log reduction (Staphylococcus aureus; 0.001 mg/mL, 24 h) of the same compound?
Its log reduction is over 5 log.

What about the viable count (Staphylococcus aureus; 0.001 mg/mL, 24 h) of the same compound?
The viable count was under 10.

And the log reduction (Staphylococcus aureus; 0.001 mg/mL, 7 d)?
The log reduction was 3.7 log.

And the viable count (Staphylococcus aureus; 0.001 mg/mL, 7 d)?
Its viable count is 2 × 10^2.

And the log reduction (Staphylococcus aureus; 0.001 mg/mL, 14 d)?
The log reduction was 3.9 log.

What about the viable count (Staphylococcus aureus; 0.001 mg/mL, 14 d) of the same compound?
The viable count was 1.4 × 10^2.

What about the log reduction (Staphylococcus aureus; 0.001 mg/mL, 28 d) of the same compound?
The log reduction was 4.4 log.

What about the viable count (Staphylococcus aureus; 0.001 mg/mL, 28 d) of the same compound?
The viable count was 40.

And the viable count (Staphylococcus aureus; 0.001 mg/mL, T0)?
Its viable count is 1.6 × 10^5.

And the log reduction (Staphylococcus aureus; 0.01 mg/mL, 6 h)?
The log reduction was over 5 log.

What about the viable count (Staphylococcus aureus; 0.01 mg/mL, 6 h) of the same compound?
Its viable count is under 10.

And the log reduction (Staphylococcus aureus; 0.01 mg/mL, 24 h)?
The log reduction was over 5 log.

What about the viable count (Staphylococcus aureus; 0.01 mg/mL, 24 h) of the same compound?
The viable count was under 10.

And the log reduction (Staphylococcus aureus; 0.01 mg/mL, 7 d)?
The log reduction was over 5 log.

What about the viable count (Staphylococcus aureus; 0.01 mg/mL, 7 d) of the same compound?
The viable count was under 10.

What about the log reduction (Staphylococcus aureus; 0.01 mg/mL, 14 d) of the same compound?
The log reduction was over 5 log.

What about the viable count (Staphylococcus aureus; 0.01 mg/mL, 14 d) of the same compound?
Its viable count is under 10.

And the log reduction (Staphylococcus aureus; 0.01 mg/mL, 28 d)?
Its log reduction is over 5 log.

What about the viable count (Staphylococcus aureus; 0.01 mg/mL, 28 d) of the same compound?
The viable count was under 10.

What about the viable count (Staphylococcus aureus; 0.01 mg/mL, T0) of the same compound?
Its viable count is 10.

What about the log reduction (Staphylococcus aureus; 0.1 mg/mL, 6 h) of the same compound?
Its log reduction is over 5 log.

What about the viable count (Staphylococcus aureus; 0.1 mg/mL, 6 h) of the same compound?
The viable count was <10^2.

What about the log reduction (Staphylococcus aureus; 0.1 mg/mL, 24 h) of the same compound?
Its log reduction is over 5 log.

And the viable count (Staphylococcus aureus; 0.1 mg/mL, 24 h)?
The viable count was <10^2.

And the log reduction (Staphylococcus aureus; 0.1 mg/mL, 7 d)?
The log reduction was over 5 log.

And the viable count (Staphylococcus aureus; 0.1 mg/mL, 7 d)?
The viable count was <10^2.

What about the log reduction (Staphylococcus aureus; 0.1 mg/mL, 14 d) of the same compound?
The log reduction was over 5 log.

And the viable count (Staphylococcus aureus; 0.1 mg/mL, 14 d)?
The viable count was <10^2.

What about the log reduction (Staphylococcus aureus; 0.1 mg/mL, 28 d) of the same compound?
The log reduction was over 5 log.

What about the viable count (Staphylococcus aureus; 0.1 mg/mL, 28 d) of the same compound?
Its viable count is <10^2.

And the viable count (Staphylococcus aureus; 0.1 mg/mL, T0)?
The viable count was under 10.

And the log reduction (Staphylococcus aureus; 1 mg/mL, 6 h)?
The log reduction was over 4 log.

What about the viable count (Staphylococcus aureus; 1 mg/mL, 6 h) of the same compound?
Its viable count is <10^2.

And the log reduction (Staphylococcus aureus; 1 mg/mL, 24 h)?
The log reduction was over 4 log.

And the viable count (Staphylococcus aureus; 1 mg/mL, 24 h)?
The viable count was <10^2.

What about the log reduction (Staphylococcus aureus; 1 mg/mL, 7 d) of the same compound?
Its log reduction is over 4 log.

What about the viable count (Staphylococcus aureus; 1 mg/mL, 7 d) of the same compound?
The viable count was <10^2.

And the log reduction (Staphylococcus aureus; 1 mg/mL, 14 d)?
Its log reduction is over 4 log.

What about the viable count (Staphylococcus aureus; 1 mg/mL, 14 d) of the same compound?
The viable count was <10^2.

And the log reduction (Staphylococcus aureus; 1 mg/mL, 28 d)?
Its log reduction is over 4 log.

What about the viable count (Staphylococcus aureus; 1 mg/mL, 28 d) of the same compound?
Its viable count is <10^2.

And the viable count (Staphylococcus aureus; 1 mg/mL, T0)?
Its viable count is <10^2.

And the log reduction (Candida albicans; 0.001 mg/mL, 7 d)?
The log reduction was 4 log.

And the viable count (Candida albicans; 0.001 mg/mL, 7 d)?
Its viable count is 20.

And the log reduction (Candida albicans; 0.001 mg/mL, 14 d)?
Its log reduction is 4.3 log.

What about the viable count (Candida albicans; 0.001 mg/mL, 14 d) of the same compound?
Its viable count is 10.

And the log reduction (Candida albicans; 0.001 mg/mL, 28 d)?
Its log reduction is over 4.3 log.

And the viable count (Candida albicans; 0.001 mg/mL, 28 d)?
The viable count was under 10.

And the viable count (Candida albicans; 0.001 mg/mL, T0)?
The viable count was 1.7 × 10^5.

And the log reduction (Candida albicans; 0.01 mg/mL, 7 d)?
The log reduction was over 4.3 log.

What about the viable count (Candida albicans; 0.01 mg/mL, 7 d) of the same compound?
The viable count was under 10.

And the log reduction (Candida albicans; 0.01 mg/mL, 14 d)?
The log reduction was over 4.3 log.

What about the viable count (Candida albicans; 0.01 mg/mL, 14 d) of the same compound?
The viable count was under 10.

And the log reduction (Candida albicans; 0.01 mg/mL, 28 d)?
Its log reduction is over 4.3 log.

And the viable count (Candida albicans; 0.01 mg/mL, 28 d)?
Its viable count is under 10.

What about the viable count (Candida albicans; 0.01 mg/mL, T0) of the same compound?
The viable count was 2 × 10^3.

What about the log reduction (Candida albicans; 0.1 mg/mL, 7 d) of the same compound?
The log reduction was over 4.3 log.

What about the viable count (Candida albicans; 0.1 mg/mL, 7 d) of the same compound?
The viable count was under 10.

What about the log reduction (Candida albicans; 0.1 mg/mL, 14 d) of the same compound?
The log reduction was over 4.3 log.

What about the viable count (Candida albicans; 0.1 mg/mL, 14 d) of the same compound?
Its viable count is under 10.

And the log reduction (Candida albicans; 0.1 mg/mL, 28 d)?
The log reduction was over 4.3 log.

And the viable count (Candida albicans; 0.1 mg/mL, 28 d)?
Its viable count is under 10.

What about the viable count (Candida albicans; 0.1 mg/mL, T0) of the same compound?
Its viable count is under 10.

And the log reduction (Candida albicans; 1 mg/mL, 7 d)?
Its log reduction is over 4.3 log.

What about the viable count (Candida albicans; 1 mg/mL, 7 d) of the same compound?
The viable count was under 10.

And the log reduction (Candida albicans; 1 mg/mL, 14 d)?
The log reduction was over 4.3 log.

What about the viable count (Candida albicans; 1 mg/mL, 14 d) of the same compound?
Its viable count is under 10.

And the log reduction (Candida albicans; 1 mg/mL, 28 d)?
The log reduction was over 4.3 log.

What about the viable count (Candida albicans; 1 mg/mL, 28 d) of the same compound?
Its viable count is under 10.

What about the viable count (Candida albicans; 1 mg/mL, T0) of the same compound?
The viable count was under 10.

And the log reduction (Aspergillus brasiliensis; 0.001 mg/mL, 7 d)?
The log reduction was 0 log.

And the viable count (Aspergillus brasiliensis; 0.001 mg/mL, 7 d)?
The viable count was 1.7 × 10^5.

What about the log reduction (Aspergillus brasiliensis; 0.001 mg/mL, 14 d) of the same compound?
Its log reduction is 0.1 log.

And the viable count (Aspergillus brasiliensis; 0.001 mg/mL, 14 d)?
Its viable count is 1.4 × 10^5.

And the log reduction (Aspergillus brasiliensis; 0.001 mg/mL, 28 d)?
The log reduction was 0.3 log.

What about the viable count (Aspergillus brasiliensis; 0.001 mg/mL, 28 d) of the same compound?
Its viable count is 1.0 × 10^5.

And the viable count (Aspergillus brasiliensis; 0.001 mg/mL, T0)?
Its viable count is 2.4 × 10^5.

What about the log reduction (Aspergillus brasiliensis; 0.01 mg/mL, 7 d) of the same compound?
Its log reduction is 0.7 log.

And the viable count (Aspergillus brasiliensis; 0.01 mg/mL, 7 d)?
The viable count was 3.8 × 10^4.

And the log reduction (Aspergillus brasiliensis; 0.01 mg/mL, 14 d)?
The log reduction was 0.8 log.

What about the viable count (Aspergillus brasiliensis; 0.01 mg/mL, 14 d) of the same compound?
Its viable count is 3.2 × 10^4.

What about the log reduction (Aspergillus brasiliensis; 0.01 mg/mL, 28 d) of the same compound?
Its log reduction is 0.8 log.

And the viable count (Aspergillus brasiliensis; 0.01 mg/mL, T0)?
The viable count was 2.8 × 10^5.

What about the log reduction (Aspergillus brasiliensis; 0.1 mg/mL, 7 d) of the same compound?
The log reduction was 0.4 log.

What about the viable count (Aspergillus brasiliensis; 0.1 mg/mL, 7 d) of the same compound?
Its viable count is 7.5 × 10^4.

And the log reduction (Aspergillus brasiliensis; 0.1 mg/mL, 14 d)?
Its log reduction is 1.3 log.

What about the viable count (Aspergillus brasiliensis; 0.1 mg/mL, 14 d) of the same compound?
Its viable count is 1.0 × 10^4.

And the log reduction (Aspergillus brasiliensis; 0.1 mg/mL, 28 d)?
The log reduction was 0.8 log.

And the viable count (Aspergillus brasiliensis; 0.1 mg/mL, 28 d)?
Its viable count is 2.8 × 10^4.

What about the viable count (Aspergillus brasiliensis; 0.1 mg/mL, T0) of the same compound?
Its viable count is 1.7 × 10^5.

And the log reduction (Aspergillus brasiliensis; 1 mg/mL, 7 d)?
The log reduction was 0.8 log.

And the viable count (Aspergillus brasiliensis; 1 mg/mL, 7 d)?
The viable count was 2.9 × 10^4.

What about the log reduction (Aspergillus brasiliensis; 1 mg/mL, 14 d) of the same compound?
The log reduction was 1 log.

What about the viable count (Aspergillus brasiliensis; 1 mg/mL, 14 d) of the same compound?
Its viable count is 1.7 × 10^4.

What about the log reduction (Aspergillus brasiliensis; 1 mg/mL, 28 d) of the same compound?
Its log reduction is 1.1 log.

And the viable count (Aspergillus brasiliensis; 1 mg/mL, 28 d)?
The viable count was 1.4 × 10^4.

And the viable count (Aspergillus brasiliensis; 1 mg/mL, T0)?
The viable count was 1.6 × 10^5.
